# Data from article PMC5244392, “Interspecies cathelicidin comparison reveals divergence in antimicrobial activity, TLR modulation, chemokine induction and regulation of phagocytosis” (Scientific Reports, 2017).
# Test system: E. coli O78
# Assay: Sytox green membrane leakage assay
# Assay type: cell-based, Escherichia coli
# Settings: 30 min at 37 °C, MHB or DMEM + FCS, peptide 0.31-20 μM; N = 3
# Method: Peptide dilutions and bacteria suspensions were prepared as described above for testing the antimicrobial activity in the Bioscreen C analyzer. Peptide dilutions and bacteria were mixed 1:1 and incubated for 30 minutes at 37 °C. Next, bacteria were washed once with PBS and transferred to black 96-wells assay plates (Corning, OH, USA). Bacteria were incubated with […] sytox green (Life technologies) (λex 504 nm and λem 523 nm) for 5 minutes after which fluorescence was measured using a FLUOstar Omega microplate reader (BMG Labtech GmbH, Ortenberg, Germany).
# The capacity of peptides to induce membrane leakage was tested using the permeability marker sytox green. […] For MRSA, fluorescence levels were generally very low even at >Cmax levels, hampering a good comparison between growth delay and permeabilization for this strain.
# Supplementary Figure 2: Bacterial membrane leakage
# E. Coli O78 and MRSA (1x10^6 CFU/ml) were grown in MHB or DMEM+FCS for 30 minutes at 37°C in the presence of diﬀerent concentrations of cathelicidins (0.31 µM, 0.63 µM, 1.25 µM, 2.5 µM, 5 µM, 10 µM, and 20 µM), after which the cells were stained with sytox green to measure membrane leakage. E. Coli in MHB, dark green line; E. Coli in DMEM, light green line; MRSA in MHB, dark blue line; MRSA in DMEM, light blue line. Results are presented as average +/- SEM (N = 3).
# Peptide concentration (µ M) […]
sequence,measurement,value
"RRRPRPPYLPRPRPPPFFPPRLPPRIPPGFPPRFPPRFP [PR-39, porcine proline-rich cathelicidin forming a polyproline helix, 39 residues, charge +10]","Membrane permeability (sytox green fluorescence), in words",minimal permeability
